In US7915293B2, “Ubiquitin ligase inhibitors” (Rigel Pharmaceuticals, Inc., priority 2003, dated 2011):

Experiments:
Set-up in all cases: key: “+” indicates that the compound exibits inhibitory activity; “−” indicates that low or no inhibitory activity was observed
HeLa cells = test: Cell proliferation assay, photographic image analysis of proliferation, apoptosis and death (PAD assay), HeLa; format: cell-based; conditions: 6 concentrations tested
Procedure: (§1) A549 (ATCC# CCL-185), HeLa (ATCC# CCL-2), HCT116 (ATCC# CCL-247), and H1299 (ATCC# CRL-5803) cells were maintained in T175 flasks following the ATCC recommended media and handling procedures. Flasks reaching approximately 70% confluency were trypsinized and resuspended in RPMI media (Cell-Gro catalog number 10-040-CM) modified to contain 5% FBS, 100 ug/mlPen/Strep (Cell-Gro catalog number 30-002-CL), and 0.3 mg/ml L-Glutamine (Cell-Gro catalog number 25-003-CL). A 20,000 cells/ml solution was made for plating. Cells were plated in black Packard 96 well plates by placing 100 μl per well (2,000 cells per well).
(§2) Compounds and additional media were added 24 hours after cell plating. A compound master plate was created with concentrations 500 times greater than the final concentration added to the cells. All compound testing was done in duplicate using 6.3 fold dilutions starting with 10 mM. All outside wells (and 4 internal wells) were DMSO controls. Taxol and at least one additional control were run on all plates. Three microliters of the compound master plate were added to deep well blocks containing 750 μl of RPMI media. One hundred microliters were transferred from the compound/media deep well blocks to the plated cells resulting in a 500 fold dilution of the compounds. Cells were grown at 37° C., 5% CO2 for 48 hours.
(§3) Cells to be analyzed by photography were fixed and stained. One hundred microliters of media were removed and 100 μl of 9.3% […] was added to each well. Plates were left on the benchtop for 45 minutes. A staining solution containing 1.55 μl of 1 mg/ml DAPI added to 18.75 ml PBS was warmed for 15 minutes at 37° C. The cells were aspirated prior to washing with 100 μl of PBS. Seventy microliters of PBS were aspirated and 170 μl of the DAPI solution were added to each well of fixed cells. Plates were left at room temperature for one hour then aspirated and washed twice with 100 μl of PBS. The stained cells were left at 4° C. for a minimum of 16 hours before photographic analysis with Array Scan II (Cellomics). Analysis of the photographic images to determine numbers of live cells (proliferation), apoptotic cells and dead cells, were according to the methods described in U.S. Provisional Patent Application Ser. No. 60/406,714, which incorporated herein in its entirety.

A549 cells = test: Cell proliferation assay, photographic image analysis of proliferation, apoptosis and death (PAD assay), A549; format: cell-based; conditions: 6 concentrations tested
Procedure: as §1, §2, §3

[1] = target: E3 (His-APC11/APC2-"APC") (Homo sapiens, UniProt Q9NYG5+Q9UJX6); test: Plate-based E3 ligase assay (APC FLAG), auto-ubiquitination; format: biochemical; conditions: for APC Flag 8 pt: 8 concentrations tested
Sequence of E3 (His-APC11/APC2-"APC") (Q9NYG5 whole entry): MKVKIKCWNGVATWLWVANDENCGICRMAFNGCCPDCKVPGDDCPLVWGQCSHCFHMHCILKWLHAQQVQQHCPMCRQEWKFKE
Sequence of E3 (His-APC11/APC2-"APC") (Q9UJX6 whole entry): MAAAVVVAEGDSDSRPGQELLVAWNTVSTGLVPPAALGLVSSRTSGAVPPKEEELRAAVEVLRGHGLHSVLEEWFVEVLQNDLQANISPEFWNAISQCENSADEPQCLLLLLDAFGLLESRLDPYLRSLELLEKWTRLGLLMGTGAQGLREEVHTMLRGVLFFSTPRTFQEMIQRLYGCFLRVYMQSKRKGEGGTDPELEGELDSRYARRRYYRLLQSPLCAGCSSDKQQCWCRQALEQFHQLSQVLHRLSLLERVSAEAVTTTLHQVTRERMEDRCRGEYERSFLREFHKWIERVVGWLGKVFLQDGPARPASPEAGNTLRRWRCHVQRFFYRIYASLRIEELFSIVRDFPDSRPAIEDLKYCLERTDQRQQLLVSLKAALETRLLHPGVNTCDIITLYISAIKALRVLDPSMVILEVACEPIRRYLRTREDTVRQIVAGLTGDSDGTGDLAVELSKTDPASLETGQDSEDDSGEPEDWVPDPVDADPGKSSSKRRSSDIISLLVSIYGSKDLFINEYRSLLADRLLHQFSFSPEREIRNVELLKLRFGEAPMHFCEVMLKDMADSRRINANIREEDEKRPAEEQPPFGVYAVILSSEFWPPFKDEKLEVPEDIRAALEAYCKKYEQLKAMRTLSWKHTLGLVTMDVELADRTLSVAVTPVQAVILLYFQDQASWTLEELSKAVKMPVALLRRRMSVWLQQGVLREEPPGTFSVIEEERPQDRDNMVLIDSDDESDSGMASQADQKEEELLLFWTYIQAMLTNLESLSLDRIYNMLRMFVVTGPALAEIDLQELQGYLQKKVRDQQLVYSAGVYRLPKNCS
Procedure, shortened: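 His-APC11/APC2 auto-ubiquitination was run in casein-blocked nickel plates for 1 h at room temperature, with E1 at 5 ng/well, UbcH5c at 20 ng/well and APC at 100 ng/well. Buffer was 62.5 mM Tris pH 7.6, 3 mM MgCl2, 1 mM DTT, 2.5 mM ATP and Flag-ubiquitin at 100 ng/well. Detection used anti-Flag/HRP chemiluminescence, and IC50 was typically from 6 or 8 concentrations versus a DMSO control.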

| APC Flag 8 pt [1] | APC Flag (2 pt) ([1]; 2 concentrations tested) | SMILES | PAD Assay, HELA 6 pt (HeLa cells) | PAD Assay, A549 6 pt (A549 cells) |
| --- | --- | --- | --- | --- |
| + |  | O=[N+]([O-])c1ccc(Oc2ccc(NS(=O)(=O)c3cc(Cl)ccc3Cl)cc2)cc1 [Compound 273, 2,5-dichloro-N-[4-(4-nitrophenoxy)phenyl]benzenesulfonamide] | − | + |
| + |  | O=S(=O)(Nc1ccc(Oc2ccc(F)cc2)c(Br)c1)c1cccc(Cl)c1 [Compound 282, N-[3-bromo-4-(4-fluorophenoxy)phenyl]-3-chlorobenzenesulfonamide] | − | + |
| + |  | COc1ccc(S(=O)(=O)Nc2ccc(Oc3cc(C(F)(F)F)ccc3Cl)cc2F)cc1 [Compound 287, N-{4-[2-chloro-5-(trifluoromethyl)phenoxy]-2-fluorophenyl}-4-methoxybenzenesulfonamide] | + | + |
| − |  | O=C(Nc1ccc(Oc2ccc(F)cc2)c(Br)c1)c1cccc(Cl)c1 [Compound 303] | + | + |
| + |  | O=C(Nc1cccc(Cl)c1)Nc1ccc(Oc2ccc(F)cc2)c(Br)c1 [Compound 304] | + | + |
| − |  | O=[N+]([O-])c1ccc(Oc2c(Cl)cc(S(=O)(=O)Nc3ccc4cn[nH]c4c3)cc2Cl)c(Cl)c1 [Example 171, 3,5-dichloro-4-(2-chloro-4-nitrophenoxy)-N-1H-indazol-6-ylbenzenesulfonamide] | − | + |
| + |  | O=[N+]([O-])c1ccc(Oc2c(Cl)cc(S(=O)(=O)Nc3cccc4c3OC(F)(F)C(F)(F)O4)cc2Cl)c(Cl)c1 [Example 192, 3,5-dichloro-4-(2-chloro-4-nitrophenoxy)-N-(2,2,3,3-tetrafluoro-2,3-dihydro-1,4-benzodioxin-5-yl)benzenesulfonamide] | − | − |
| + |  | O=[N+]([O-])c1ccc(Oc2c(Cl)cc(S(=O)(=O)Nc3cc(F)c(F)cc3F)cc2Cl)c(Cl)c1 [Example 199, 3,5-dichloro-4-(2-chloro-4-nitrophenoxy)-N-(2,4,5-trifluorophenyl)benzenesulfonamide] | + | + |
|  | − (2 pt) | Cc1cc(NS(=O)(=O)c2cc(Cl)c(Oc3ccc([N+](=O)[O-])cc3Cl)c(Cl)c2)no1 [Example 217, 3,5-dichloro-4-(2-chloro-4-nitrophenoxy)-N-(5-methylisoxazol-3-yl)benzenesulfonamide] | − | − |
| + |  | Cc1ccc(C(F)(F)F)cc1NS(=O)(=O)c1cc(Cl)c(Oc2ccc([N+](=O)[O-])cc2Cl)c(Cl)c1 [Example 229, 3,5-dichloro-4-(2-chloro-4-nitrophenoxy)-N-[2-methyl-5-(trifluoromethyl)phenyl] benzenesulfonamide] | + | + |
| + |  | CC(C)(C)c1cccc(C(C)(C)C)c1NS(=O)(=O)c1cc(Cl)c(Oc2ccc([N+](=O)[O-])cc2Cl)c(Cl)c1 [Example 231, 3,5-dichloro-4-(2-chloro-4-nitrophenoxy)-N-(2,6-di-tert-butylphenyl)benzenesulfonamide] | + | + |
| + |  | O=[N+]([O-])c1ccc(Oc2c(Cl)cc(S(=O)(=O)Nc3cccc(F)c3)cc2Cl)c(Cl)c1 [Example 232, 3,5-dichloro-4-(2-chloro-4-nitrophenoxy)-N-(3-fluorophenyl)benzenesulfonamide] | + | + |
| + |  | Cc1c(F)cccc1NS(=O)(=O)c1cc(Cl)c(Oc2ccc([N+](=O)[O-])cc2Cl)c(Cl)c1 [Example 234, 3,5-dichloro-4-(2-chloro-4-nitrophenoxy)-N-(3-fluoro-2-methylphenyl)benzene-sulfonamide] | + | + |
| + |  | Cc1cc(F)ccc1NS(=O)(=O)c1cc(Cl)c(Oc2ccc([N+](=O)[O-])cc2Cl)c(Cl)c1 [Example 236, 3,5-dichloro-4-(2-chloro-4-nitrophenoxy)-N-(4-fluoro-2-methylphenyl)benzene-sulfonamide] | + | + |
| + |  | O=[N+]([O-])c1ccc(Oc2c(Cl)cc(S(=O)(=O)Nc3cc(F)ccc3F)cc2Cl)c(Cl)c1 [Example 237, 3,5-dichloro-4-(2-chloro-4-nitrophenoxy)-N-(2,5-difluorophenyl)benzenesulfonamide] | + | + |
| + |  | O=[N+]([O-])c1ccc(Oc2c(Cl)cc(S(=O)(=O)Nc3c(F)cccc3F)cc2Cl)c(Cl)c1 [Example 238, 3,5-dichloro-4-(2-chloro-4-nitrophenoxy)-N-(2,6-difluorophenyl)benzenesulfonamide] | + | + |
| + |  | O=[N+]([O-])c1ccc(Oc2c(Cl)cc(S(=O)(=O)Nc3c(F)cc(F)cc3F)cc2Cl)c(Cl)c1 [Example 241, 3,5-dichloro-4-(2-chloro-4-nitrophenoxy)-N-(2,4,6-trifluorophenyl)benzenesulfonamide] | + | + |
| + |  | CC(C)(C)c1cc2cc(NS(=O)(=O)c3cc(Cl)c(Oc4ccc([N+](=O)[O-])cc4Cl)c(Cl)c3)ccc2[nH]1 [Example 245, N-(2-tert-butyl-1H-indol-5-yl)-3,5-dichloro-4-(2-chloro-4-nitrophenoxy)benzene-sulfonamide] | + | + |
| + |  | O=S(=O)(Nc1cccc2cnccc12)c1cc(Cl)c(Oc2ccc(Cl)cc2Cl)c(Cl)c1 [Example 246, 3,5-dichloro-4-(2,4-dichlorophenoxy)-N-isoquinolin-5-ylbenzenesulfonamide] | + | + |
| + |  | Cc1ccc(NS(=O)(=O)c2cc(Cl)c(Oc3ccc([N+](=O)[O-])cc3Cl)c(Cl)c2)cc1I [Example 250, 3,5-dichloro-4-(2-chloro-4-nitrophenoxy)-N-(3-iodo-4-methylphenyl)benzenesulfonamide] | + | + |
| + |  | Cc1ccc(Cl)cc1NS(=O)(=O)c1cc(Cl)c(Oc2ccc([N+](=O)[O-])cc2Cl)c(Cl)c1 [Example 252, 3,5-dichloro-N-(5-chloro-2-methylphenyl)-4-(2-chloro-4-nitrophenoxy)benzene-sulfonamide] | + | + |
| + |  | O=S(=O)(Nc1ccc(F)c(Cl)c1)c1ccc(Oc2ncc(C(F)(F)F)cc2Cl)cc1 [Example 256, N-(3-chloro-4-fluorophenyl)-4-{[3-chloro-5-(trifluoromethyl)pyridin-2-yl]oxy}benzene-sulfonamide] | + | + |
